Experimental data published in PMC3495945, “Org 214007-0: A Novel Non-Steroidal Selective Glucocorticoid Receptor Modulator with Full Anti-Inflammatory Properties and Improved Therapeutic Index” (PLoS ONE, 2012).

Key:
GR = molecular target: T1, GR (Homo sapiens, UniProt P04150); experiment: ChIP-Seq analysis of GR binding to DNA in THP-1 cells; type: cell-based; set-up: endogenous in cells; host or cells: THP-1; conditions: for number of ChIP-Seq clusters compared to vehicle: THP-1, 1 μM, 1 hour
T1 sequence (P04150 1-777): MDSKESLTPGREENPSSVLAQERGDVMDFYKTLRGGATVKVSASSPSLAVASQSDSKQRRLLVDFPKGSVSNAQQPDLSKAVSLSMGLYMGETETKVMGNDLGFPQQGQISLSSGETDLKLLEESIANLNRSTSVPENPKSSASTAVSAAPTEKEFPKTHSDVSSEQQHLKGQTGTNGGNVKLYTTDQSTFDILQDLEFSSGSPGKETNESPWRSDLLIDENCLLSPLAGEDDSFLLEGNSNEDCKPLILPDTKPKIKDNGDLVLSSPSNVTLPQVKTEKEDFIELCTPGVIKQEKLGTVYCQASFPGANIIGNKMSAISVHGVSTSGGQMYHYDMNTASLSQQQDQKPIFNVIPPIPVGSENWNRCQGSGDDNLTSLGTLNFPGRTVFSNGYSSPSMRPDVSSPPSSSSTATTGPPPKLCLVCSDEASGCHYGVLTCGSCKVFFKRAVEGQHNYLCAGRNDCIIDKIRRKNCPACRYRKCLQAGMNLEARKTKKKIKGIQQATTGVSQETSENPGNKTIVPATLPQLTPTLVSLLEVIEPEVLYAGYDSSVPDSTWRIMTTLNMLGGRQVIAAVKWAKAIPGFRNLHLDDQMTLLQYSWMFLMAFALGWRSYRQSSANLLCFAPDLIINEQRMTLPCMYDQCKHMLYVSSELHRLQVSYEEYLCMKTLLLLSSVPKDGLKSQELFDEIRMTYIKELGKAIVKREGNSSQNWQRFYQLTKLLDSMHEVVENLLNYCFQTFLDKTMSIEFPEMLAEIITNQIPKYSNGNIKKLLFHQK
Protocol: From the THP-1 samples that were used for gene expression analysis after 6 hours, samples were drawn after 1 hour and used for ChIP–Seq analysis at Genpathway (Carlsbad, CA). For precipitation of genomic DNA regions antibody against GR (Santa Cruz sc-8992) was used. Details are provided in SI text. The obtained amplified DNA libraries were sent to Illumina Sequencing Services (San Diego, CA) for sequencing on a Genome Analyzer II. Sequence files were analyzed with the Genomatix Genome Analyzer Workbench from Genomatix (Genomatix Software GmbH, Munich). Sequences were clustered using default parameter settings and aligned against the human genome version GRCh37/hg19. Clusters were merged using the Replicate Analysis module from the Workbench package (more detailed information in SI text).
Cells were fixed with 1% formaldehyde for 15 min and quenched with 0.125 M glycine. Chromatin was isolated by adding lysis buffer, followed by disruption with a Dounce homogenizer (cells) or motor pestle (tissue). Lysates were sonicated and the DNA sheared to an average length of 300-500 bp. Genomic DNA (Input) was prepared by treating aliquots of chromatin with RNase, proteinase K and heat for de-crosslinking, followed by ethanol precipitation. Pellets were resuspended and the resulting DNA was quantified on a NanoDrop spectrophotometer. Extrapolation to the original chromatin volume allowed quantitation of the total chromatin yield.
An aliquot of chromatin (28.5 ug) was precleared with protein A agarose beads (Invitrogen). Genomic DNA regions of interest were isolated using 4 ug antibody against GR (Santa Cruz sc-8992). Complexes were washed, eluted from the beads with SDS buffer, and subjected to RNase and proteinase K treatment. Crosslinks were reversed by incubation overnight at 65 C, and ChIP DNA was purified by phenol-chloroform extraction and ethanol precipitation.

[1] = test system: hepatic glucose metabolism; experiment: Mouse MIDA model for liver glucose metabolism; type: in vivo; conditions: prednisolone 10 mg/kg, Org 214007-0 1.5 mg/kg; for glucokinase flux rate / gluconeogenic flux (de novo synthesis of glucose-6-phosphate) / glucose-6-phosphatase flux / glycogen phosphorylase flux / glycogen synthase flux rate / liver glucose balance / liver glycogen balance / metabolic clearance rate of blood glucose: 7 days p.o.; for fasting blood glucose levels vs vehicle: oral daily 7 days
Protocol: Eighteen hours after the last oral treatment and 9 hours after start of starvation, blood samples were taken from the tail vein and directly used for glucose measurements using “One touch Ultra” glucose meter from Lifescan EuroFlash (Lifescan Benelux Beerse, Belgium). The mouse MIDA study was performed as described previously by van Dijk et al., [52]. […] On the third day, mice were cannulated in the right jugular vein. After 7 days of treatment, mice were placed in small Plexiglas cages, which allowed collection of blood samples frequently in freely moving mice. Twenty four hours after the final dose and after a 9 hours starving period, a tail vein blood sample was used for a glucose measurement after which mice were shortly anesthetized to attach the infusion lines before the experiment. Filter paper was placed under the wired floor cages to collect urine samples and replaced hourly. Mice received an infusion of a sterilized aqueous solution containing [U-^13C]glucose (13 μmol/ml), [2-^13C]glycerol (160 μmol/ml), [1-^2H]galactose (33 μmol/ml) and paracetamol (1 mg/ml) at a rate of 0.54 ml/hr for 6 hours. During the experiment blood glucose was measured and blood spots for GCMS measurements were collected from tail tips just before the start of the infusion and at hourly intervals. Blood spots and urine filter papers were air-dried and stored at room temperature until analysis. Glucose and paracetamol-glucuronic acid (Par-GLcUa) were extracted from blood spot and urine filter papers, respectively, derivatised, and measured by GC-MS, essentially as described previously, [52]. The fractional isotopomer distribution according to GC-MS was corrected for fractional distribution due to the natural abundance of ^13C by multiple linear regression to obtain the excess mole fraction of mass isotopomers M0-M6 due to incorporation of infused labeled carbohydrates. From isotope dilution and infusion rates, the flux rates of the following metabolic pathways could be calculated: 1) de novo synthesis of G6P, 2) glucokinase, 3) glucose-6-phosphatase, 4) glycogenolysis, and 5) glycogen synthesis. The method of calculation was performed as described before, [52], [53].

## C[C@]12C=CC(=O)C=C1CC[C@@H]1[C@@H]2[C@@H](O)C[C@@]2(C)[C@H]1CC[C@]2(O)C(=O)CO [prednisolone, reference compound]
GR; inflammatory condition
  number of ChIP-Seq clusters compared to vehicle: 3471
GR; non-stimulated condition
  number of ChIP-Seq clusters compared to vehicle: 9413
[1]
  glucokinase flux rate: significantly decreased
  gluconeogenic flux (de novo synthesis of glucose-6-phosphate): no change
  glucose-6-phosphatase flux: Neither the glucose-6-phosphatase flux (A) nor the glycogen phosphorylase flux (B) were affected
  glycogen phosphorylase flux: Neither the glucose-6-phosphatase flux (A) nor the glycogen phosphorylase flux (B) were affected
  glycogen synthase flux rate: significantly decreased
  liver glucose balance: significantly changed
  liver glycogen balance: significantly changed
  metabolic clearance rate of blood glucose: Neither Org 214007-0 nor prednisolone, at equi-efficacious dosages, effects
  fasting blood glucose levels vs vehicle: significantly elevated

## Cc1nnsc1C(=O)N[C@H]1CCN2c3ccc(C#N)cc3[C@@H](C)c3ccccc3[C@@H]2C1 [Org 214007-0]
GR; inflammatory condition
  number of ChIP-Seq clusters compared to vehicle: 2502
GR; non-stimulated condition
  number of ChIP-Seq clusters compared to vehicle: 2080
GR; non-stimulated, 2080 vs 9413 sites
  binding sites also contained within the prednisolone set: 99.5%
[1]
  glucokinase flux rate: no significant effects
  gluconeogenic flux (de novo synthesis of glucose-6-phosphate): Neither Org 214007-0 nor prednisolone, at equi-efficacious dosages, effects
  glucose-6-phosphatase flux: Neither the glucose-6-phosphatase flux (A) nor the glycogen phosphorylase flux (B) were affected
  glycogen phosphorylase flux: Neither the glucose-6-phosphatase flux (A) nor the glycogen phosphorylase flux (B) were affected
  glycogen synthase flux rate: no significant effects
  liver glucose balance: not affected
  liver glycogen balance: not effected
  metabolic clearance rate of blood glucose: Neither Org 214007-0 nor prednisolone, at equi-efficacious dosages, effects
  fasting blood glucose levels vs vehicle: did not affect
